Test [1] can be described thus: Succinate-Glo Hydroxylase assay in the absence of C-P4H1 (counter test). Type of test: biochemical. To be noted: no C-P4H1 in the reaction. How it is done:
(§1) Succinate-Glo™ Hydroxylase assay was ran following the protocol of Succinate-Glo™ JmjC Demethylase/Hydroxylase Assay (Promega, V7991). Briefly, following the human CP4H1 assay, 10 μL Succinate Detection Reagent I was added, including the enzymes 3-oxoacid CoA-transferase (SCOT) and succinyl CoA ligase (SCS), and acetoacetyl-CoA. See, TM488 Technical Manual and U.S. Pat. No. 9,677,117 for “Bioluminescent Succinate Detection Assay,” issued Jun. 13, 2017, assigned to Promega Corporation. Mix assay plate with a plate shaker for 30 seconds, and incubate at room temperature for 60 minutes. Add 20 μl of Succinate Detection Reagent II, including the enzyme luciferase, to each well of the assay plate to generate light from the ATP. See, Id. Mix assay plate with a plate shaker for 30 seconds, and incubate at room temperature for 10 minutes. Measure the luminescence with a plate-reading luminometer (BioTek).
To further evaluate reliability of the Succinate-Glo™ assay, varied concentration of peptide substrate GPPG (FIG. 3A) and hydroxyl donor α-KG (FIG. 3B) were tested in the hydroxylation reaction, respectively. Increased concentration of GPPG and α-KG induced luminescence assay in a dose dependent manner. DHB has been identified as a C-P4Hs' inhibitor^35. To determine whether this assay can evaluate c-P4H1 inhibitor's activity, C-P4H1 was incubated with different concentration of DHB for 30 min at 4° C., and then the hydroxylation reaction and the bioluminescence-based assay were performed. […] The IC50 was detected at around 20 μM, which is much lower than the IC50 value of 0.1 mM reported in the previous research with the collagen hydroxylation assay in the chicken tendon cells (doi: 10.1042/bj2610127); this is probably due to the sensitivity difference between two methods. In the absence of C-P4H1, DHB had little effect on the Succinate-Glo™ assay, indicating the inhibitory effect is specific on the prolyl hydroxylation reaction (FIG. 3D).

Test [2] concerns collagen hydroxylation in chicken tendon cells. The note with it: collagen hydroxylation assay, doi: 10.1042/bj2610127, read-out: IC50 reported in previous research; cited from earlier work.
A further test addresses T1, human C-P4H1 (Homo sapiens, UniProt P13674).
T1 construct: made in house; host or cells: HEK-293FT
Kind of test: Human C-P4H1 activity measured with Succinate-Glo Hydroxylase assay (also high-throughput screening). Type of test: biochemical. The note with it: for inhibition of C-P4H1 activity (luminescence): different concentrations, 200 nM C-P4H1. How it is done: Human CP4H1 activity Assays were carried out at room temperature in 10 mM HEPES buffer containing 10 mM NaCl, pH 7.4. […] FeSO4 was prepared freshly in 10 mM HCl prior to each time use. Following 1 hour reaction, the reaction solution was subjected to Hydroxyproline Colorimetric Assay and Succinate-Glo™ Hydroxylase assay respectively.
as §1
[…] Then mix with peptide substrate (GlyProProGly(SEQ ID NO:1)OEt), 500 μM), FeSO4 (50 μM), catalase (0.1 mg/mL), ascorbate (2 mM), and α-ketoglutarate (100 μM) to react 1 hour at room temperature. The reaction volume was usually 10 μL. After the reaction, Succinate-Glo™ Hydroxylase assay was conducted in the corresponding 96-well or 384-well plate. 50 μM DHB was set as a positive control in each plate.

For test [3], the system named is HS-578T cells. Kind of test: 3D culture assay, invasive branching. Type of test: cell-based. The note with it: 10 μM and 20 μM, 24 hours. The procedure:
(§2) 3D laminin-rich extracellular matrix (3D lrECM) on-top cultures were prepared by trypsinization of cells from tissue culture plastic^25. Growth Factor Reduced BD Matrigel™ was plated on the bottom of the cell culture dish. MDA-MB-231 and HS-578 cells were seeded on the top of the matrigel layer, and additional medium containing 10% Matrigel was added on the top.
(§3) All the 3D culture assay images were acquired by Nikon microscope and were quantified with the Nikon analysis software. Results are reported as mean±S.E.M; the significance of difference was assessed by independent Student's t-test. P<0.05 represents statistical significance and P<0.01 represents sufficiently statistical significance. All reported P values were 2-tailed.
(§4) It has been shown that silence of P4HAs suppress invasive tumor growth in three-dimensional (3D) tissue culture model^19,25. 3D culture model has been widely used to evaluate drug effect^38. To further evaluate the inhibitory ability of these chemicals in tumor progression, triple-negative breast cancer cell lines, MDA-MB-231 cells and HS-578T cells were treated with Silodosin and Ticlopidine in 3D culture^39. […] Invasive branching structure of cancer cells in 3D culture is associated with tumor invasion and aggressive phenotypes^15, 19, 25. […]

Another test concerns MDA-MB-231 cells. Kind of test: 3D culture assay, invasive branching / invasive growth. The note with it: MDA-MB-231, 10 μM and 20 μM, 48 hours. Type of test: cell-based. The procedure:
as §2, §3, §4

Test [4] deals with HS-578T cells. Kind of test: Western blot of type I collagen in conditioned medium of treated cells. To be noted: 48 hours, 10 μM and 20 μM. Type of test: cell-based. How it is done: Chemical treated Hs578 cells were lysed in 2% sodium dodecyl sulfate (SDS) in phosphate-buffered saline (PBS) buffer containing phosphatase and protease inhibitor cocktails (EMD Millipore, 539131). Protein concentration was measured using Pierce™ BCA Protein Assay Kit (Thermo Fisher Scientific, 23227). Equal amounts of protein lysates or cell conditional medium (normalized to cell numbers) were subjected to SDS gel electrophoresis, immunoblotted with primary antibodies (Anti-Collagen I antibody, ab34710; Anti-tubulin, Cell Signaling 2148)) and DyLight 680/800-conjugated secondary antibodies (DyLight 680-conjugated goat anti-rabbit IgG secondary antibody Thermo Fisher Scientific, 35569; DyLight 800-conjugated goat anti-mouse IgG secondary antibody Thermo Fisher Scientific, SA5-35521).
To determine whether the identified potential inhibitors suppress the C-P4H1 activity in tissue culture, HS-578T cells were treated with Silodosin or Ticlopidine for 48 hours. Since collagen maturation and secretion was regulated by the C-P4H1, conditioned media were collected from control and Silodosin- or Ticlopidine-treated cells for western blot analysis.

Here are results for two compounds from US12564578B2, “Collagen P4H1 inhibitor and its use” (University of Kentucky Research Foundation, priority 2019, dated 2026).

One may read the IC50 as the concentration at which inhibition is half-maximal.

Structures are written as SMILES. Entries after “also recorded” stand apart in the source; their conditions may differ. Read-outs that look alike come from different tables or passages of the source.

T1 sequence (P13674 18-534): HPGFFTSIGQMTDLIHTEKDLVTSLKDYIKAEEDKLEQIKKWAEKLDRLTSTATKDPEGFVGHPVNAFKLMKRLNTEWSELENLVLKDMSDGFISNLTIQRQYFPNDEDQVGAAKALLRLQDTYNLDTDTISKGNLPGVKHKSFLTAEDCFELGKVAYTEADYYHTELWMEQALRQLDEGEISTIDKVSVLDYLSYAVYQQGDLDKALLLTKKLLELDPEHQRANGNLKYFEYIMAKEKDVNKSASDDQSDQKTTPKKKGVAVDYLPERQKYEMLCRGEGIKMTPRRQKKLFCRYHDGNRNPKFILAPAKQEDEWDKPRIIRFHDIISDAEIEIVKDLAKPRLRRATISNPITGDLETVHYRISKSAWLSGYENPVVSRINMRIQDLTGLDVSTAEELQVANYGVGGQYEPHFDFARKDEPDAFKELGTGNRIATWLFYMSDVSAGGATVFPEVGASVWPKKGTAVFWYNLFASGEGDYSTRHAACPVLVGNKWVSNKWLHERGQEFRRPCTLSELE
T1 sequence (P07237 18-508 partner): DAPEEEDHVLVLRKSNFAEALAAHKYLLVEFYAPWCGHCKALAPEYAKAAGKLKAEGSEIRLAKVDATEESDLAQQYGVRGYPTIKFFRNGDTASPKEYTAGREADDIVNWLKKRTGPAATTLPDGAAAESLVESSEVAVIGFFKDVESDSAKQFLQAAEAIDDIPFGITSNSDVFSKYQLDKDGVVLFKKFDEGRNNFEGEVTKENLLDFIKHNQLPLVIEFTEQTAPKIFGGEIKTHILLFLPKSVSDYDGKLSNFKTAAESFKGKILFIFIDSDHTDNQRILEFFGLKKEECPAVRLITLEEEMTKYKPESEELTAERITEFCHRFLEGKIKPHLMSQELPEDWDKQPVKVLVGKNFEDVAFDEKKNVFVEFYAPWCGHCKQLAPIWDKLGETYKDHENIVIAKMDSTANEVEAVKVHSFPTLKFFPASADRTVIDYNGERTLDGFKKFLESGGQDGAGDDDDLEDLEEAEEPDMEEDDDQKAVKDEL

Turning to `CCOC(=O)c1ccc(O)c(O)c1` [DHB, ethyl-3,4-dihydroxybenzoic acid], the “effect on the luminescence assay in the absence of C-P4H1” value in test [1] is “little effect; also recorded: did not inhibit”. Besides, the IC50 in test [2] is 100 µM; at human C-P4H1 (0.1 μM WT C-P4HA1 (FIG. 3E), read-out: IC50 of wild type C-P4H1 inhibition), approximately 40 µM; on human C-P4H1 (C-P4H1 200 nM, preincubated 30 min at 4° C. (FIG. 3C), read-out: IC50 of C-P4H1 inhibition) it was approximately 20 µM. For the same compound, the “inhibition of C-P4H1 activity (luminescence)” value at human C-P4H1 is recorded as “significantly reduced luminescence values”.

As to `C[C@H](Cc1cc2c(c(C(N)=O)c1)N(CCCO)CC2)NCCOc1ccccc1OCC(F)(F)F` [Silodosin], the “invasive branching structures in 3D culture” value in the test with HS-578T cells [3] and with MDA-MB-231 cells was “significantly reduced invasive branching structures” throughout. Moreover, the “effect on the luminescence assay in the absence of C-P4H1” value was “little effect” in test [1] and “did not inhibit” in test [1] (listed as Silodocin). Besides, the “inhibition of C-P4H1 activity (luminescence)” value against human C-P4H1 is given as “inhibited C-P4H1 activity in a dose-dependent manner”. Further, the “kinetic property of C-P4H1 inhibition” value at human C-P4H1 (dose curves, FIG. 4D and 4F) is “faster kinetic property compared to ticlopidine”. Besides, the “protein levels of type I collagen in the conditioned media” value with HS-578T cells [4] is reported as “reduced protein levels of type I collagen”.
